Consider three compounds from patent US7582280B2, “Conjugates of antioxidants with metal chelating ligands for use in diagnostic and therapeutic applications” (Bracco International B.V., priority 2000, dated 2009).

Counter-ions that a name gives are not always drawn.

Series [1] relates to myocardial lesions induced by ischemia-reperfusion. The conditions noted are these: rats; cited from earlier work.
Series [2] in a line: Relaxivity in water (relaxometer). The series is classed as physicochemical. The conditions noted are these: 38° C., IBM PC/20 multispec relaxometer. An excerpt:
(§1) Relaxivity of a paramagnetic material in the presence of a large protein such as human serum albumin may be used to study the ability of the compounds of the present invention to bind the target protein. As such, when a small molecule binds a large protein, the relaxivity of the former will increase because of an increase in its rotational correlation time. This increase in relaxivity may be used not only to measure the extent of binding but also to evaluate the viability of the paramagnetic agent as a blood pool contrast medium.
(§2) The relaxivity of the conjugates 22a and 22b in water as well as in water containing a known amount (20%, v/v) of a HSA preparation, known as, seronom (Table 1) were studied.
(§3) The relaxation time of the samples (22a or 22b) in seronom (T1Gd-ligand in seronom) and in water (T1Gd-ligand in water) were measured at 38° C. using an IBM PC/20 multispec relaxometer. The relaxivity of the samples in seronom (r1Gd-ligand in seronom) and in water (r1Gd-ligand in water) were calculated by the following equations: r1Gd-ligand in seronom=(1/T1Gd-ligand in seronom−1/T1seronom)/[Gd-ligand] r1Gd-ligand in water=(1/T1Gd-ligand in water−1/T1water)/[Gd-ligand],
(§4) where [Gd-ligand] is the concentration of the chelate 22a or 22b, which was determined by ICP^11; T1seronom is the relaxation time for pure aqueous seronom; T1water is the relaxation time for pure water.

Series [3] deals with T1, seronom (HSA preparation) (Homo sapiens, UniProt P02768). The series can be described thus: Relaxivity in water containing 20% v/v seronom (HSA preparation). The series is classed as physicochemical. The conditions noted are these: for Relaxivity in aqueous seronom r1Gd-ligand in seronom: 38° C., water containing 20% v/v seronom; for increase in relaxivity in the presence of seronom: seronom versus water.
T1 sequence (P02768 25-609): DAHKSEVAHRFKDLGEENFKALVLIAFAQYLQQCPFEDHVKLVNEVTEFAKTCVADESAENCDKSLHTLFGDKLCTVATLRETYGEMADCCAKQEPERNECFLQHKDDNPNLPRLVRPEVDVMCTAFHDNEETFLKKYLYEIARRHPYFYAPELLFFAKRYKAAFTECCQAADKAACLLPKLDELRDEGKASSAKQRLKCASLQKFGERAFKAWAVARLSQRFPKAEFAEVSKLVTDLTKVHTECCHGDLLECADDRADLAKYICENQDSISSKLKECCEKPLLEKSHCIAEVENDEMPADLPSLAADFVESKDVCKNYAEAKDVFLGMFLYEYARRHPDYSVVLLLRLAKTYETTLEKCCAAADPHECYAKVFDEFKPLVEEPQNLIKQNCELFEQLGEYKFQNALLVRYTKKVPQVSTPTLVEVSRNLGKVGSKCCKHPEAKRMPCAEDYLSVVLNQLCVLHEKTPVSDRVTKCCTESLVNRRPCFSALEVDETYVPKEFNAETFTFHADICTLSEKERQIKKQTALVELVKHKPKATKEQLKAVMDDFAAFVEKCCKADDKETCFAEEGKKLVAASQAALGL
Excerpt: as §1, §2, §3, §4

The target in series [4] is T1, seronom (HSA preparation). As to the kind of experiment: Fraction bound in aqueous seronom by centrifree micropartition ultrafiltration and ICP [Gd]. It counts as in vitro ADME. The conditions noted are these: centrifuged 500 xg 45 min, [Gd] by ICP. As to the method: After the measurement, the sample in aqueous seronom was placed in a centrifree micropartition device (Millipore, Beverly, Mass.). The device was centrifuged at 500 xg for 45 min in a fixed angle rotor (Beckman Model J2-21M, JA-20 rotor). The solution (0.5 mL) was taken from below the filter (unbound Gd-ligand) for [Gd] ICP measurement. The [Gd] of the uncentrifuged sample was also measured as a control. The Fraction Bound was calculated by the following equation: Fraction Bound=([Gd-ligand]control−[Gd-ligand]unbound)/[Gd-ligand]control. Table 1 details the results of the tests.

As usually defined, the fraction unbound is free concentration divided by total concentration. A lower fraction unbound goes with extensive binding.

As for `CCCCCCCCCCCCCCCCCCOC1=C(O)[C@@H]([C@@H](O)CO)OC1=O` [2-O-octadecylascorbic acid], the “inhibition of myocardial lesions induced by ischemia-reperfusion” value in series [1] is given as “markedly inhibit”.

As to `O=C(O)CN1CCN(CC(=O)O)CCN(CC(=O)NCC(=O)NC[C@@H](O)[C@@H]2OC(=O)C(O)=C2O)CCN(CC(=O)O)CC1` [Compound 22a, 1,4,7,10-tetraazacyclododecane-1,4,7-triacetic acid, 10-[2-[[2-[[(2R)-2-[(2S)-2,5-dihydro-3,4-dihydroxy-5-oxo-2-furanyl]-2-hydroxyethyl]amino]-2-oxoethyl]amino]2-oxoethyl]-, gadolinium salt], the “Relaxivity in water r1Gd-ligand in water” value in series [2] turned out to be 4.83 mM⁻¹ s⁻¹. Further, in series [3], the “Relaxivity in aqueous seronom r1Gd-ligand in seronom” value stood at 6.38 mM⁻¹ s⁻¹ and the “increase in relaxivity in the presence of seronom” value was 32%. In series [4], this compound showed a free fraction (fraction unbound) of 0.912.

On to `O=C(O)CN1CCN(CC(=O)O)CCN(CC(=O)NCC(=O)NCC2CCC(C(=O)NC[C@@H](O)[C@@H]3OC(=O)C(O)=C3O)CC2)CCN(CC(=O)O)CC1` (stereo partly drawn) [Compound 22b, 1,4,7,10-tetraazacyclododecane-1,4,7-triacetic acid, 10-[2-[[2-[[[4-[[[(2R)-2-[(2S)-2,5-dihydro-3,4-dihydroxy-5-oxo-2-furanyl]-2-hydroxyethyl]amino]carbonyl]cyclohexyl]methyl]amino]-2-oxoethyl]amino]2-oxoethyl]-, gadolinium salt], for which, in series [2], the “Relaxivity in water r1Gd-ligand in water” value turned out to be 7.20 mM⁻¹ s⁻¹. Besides, in series [3], the “Relaxivity in aqueous seronom r1Gd-ligand in seronom” value was found to be 8.18 mM⁻¹ s⁻¹ and the “increase in relaxivity in the presence of seronom” value was found to be 14%. Also, the fraction unbound in series [4] was 0.891.
